{"source": "patent US12655141B2", "about": "“Inhibitors of notch signaling pathway and use thereof in treatment of cancers” (Cellestia Biotech AG, priority 2019, dated 2026)", "key": {"[1]": {"system": "NOTCH positive/driven human T cell acute lymphoblastic leukemia cell line RPMI 8402", "assay": "Alamar blue anti-proliferative assay", "format": "cell-based", "settings": "Homo sapiens, RPMI 8402, RPMI8402, 72 hours, concentration range 0.01-10 μM", "protocol": "Alamarblue® and PrestoBlue proliferation assays were performed to determine the growth kinetics of Notch inhibitor treated cells. Alamar Blue® and PrestoBlue consists of a cell permeable substrate resazurin. In metabolically active and proliferating cells, resazurin is converted to resorufin due to an intrinsic reducing power of live cells and produces a red fluorescence. Therefore production of resorufin serves as an indicator of the viability of the cell population.\nProliferation assays were performed by seeding 5000 cells/well in a 96 well plate. Cells were treated with DMSO or compounds for 72 hours using concentration ranges of 0.01-10 μM. Each concentration was tested in 4 replicates. To determine the growth kinetics, 10 μl of Alamar Blue® or PrestoBlue (Invitrogen) was added to each well and incubated for 4 hours. Readout was taken using Tecan F500 (Tecan) multiplate reader or Varioskan LUX (ThermoFisher) multiplate reader.\nIn order to determine anti-cancer potency of compounds compared to 6-(4-tert-butylphenoxy)pyridin-3-amine (described in WO2013/093885), NOTCH positive/driven human T cell acute lymphoblastic leukemia cell line RPMI 8402 was treated with selected compounds."}, "[2]": {"system": "cMYC", "assay": "Western blot of RPMI8402 protein lysates: cMYC", "format": "cell-based, human", "settings": "NOTCH positive leukemic cells, 1 μM, 24 hours, FIGS. 2 and 3", "protocol": "(§1) One million human NOTCH positive T-ALL cell line RPMI8402 were treated with NOTCH targeting compounds at 1 μM concentration for 24 hours. Following treatment cells were harvested and washed with 1×PBS. Total RNA and total protein lysates were extracted as described below.\n(§2) Cells were lysed in RIPA buffer (50 mM Tris·Cl, pH 7.5, 150 mM NaCl, 1% nonidet P-40, 0.5% sodium deoxycholate and 0.1% SDS) for 30 minutes at 4° C. Lysed cells were centrifuged to remove the debris at 14000 rpm at 4° C. Supernatant was transferred to a new eppendorf tube. The protein concentration was determined by Bradford assay using spectrophotometer (Ultrospec 3000 pro).\n(§3) Initially for western blotting, 40 μg of protein were denatured in 1×SDS gel loading buffer (100 mM Tris·Cl, pH 6.8, 200 mM DTT, 4% SDS, 0.2% bromophenol, 20% glycerol) by heating at 99° C. for 5 minutes. Denatured protein samples were stored on ice until loading on to the acrylamide gel. The samples were run on 8% or 10% acrylamide gel in Tris-glycine electrophoresis buffer (25 mM Tris, 250 mM glycine, 0.1% SDS). Following separation on the acrylamide gel, protein samples were transferred on to PVDF membrane (PEQ lab, catalog number 39-3010) using transfer buffer (39 mM glycine, 48 mM Tris base, 0.037% SDS and 20% methanol).\n(§4) For immunoblotting, membranes were blocked with 5% milk and incubated overnight with primary antibodies at 4° C. Membrane were washed with 1×TBST (1×TBS+0.5 tween 20) for 5 minutes (3 times) and incubated with HRP-conjugated secondary antibodies for one hour at room temperature. Signal was detected with Super Signal West chemiluminescent substrate (Thermo Scientific, catalog number 34077).\n(§5) Total protein lysates were analysed by western blot analysis using N1-ICD (cleaved and active NOTCH1 Intracellular Domain), cMYC and ACTIN specific antibodies."}, "[3]": {"system": "N1-ICD (cleaved and active NOTCH1 Intracellular Domain)", "assay": "Western blot of RPMI8402 protein lysates: N1-ICD", "format": "cell-based, human", "settings": "NOTCH positive leukemic cells, 1 μM, 24 hours, FIGS. 2 and 3", "protocol": "as §1, §2, §3, §4, §5"}, "[4]": {"system": "NOTCH pathway", "assay": "Western blot, downregulation of NOTCH pathway (N1-ICD and cMYC), FIG. 2 and 3", "format": "cell-based, human", "settings": "RPMI8402, 1 μM, 24 hours", "protocol": "NOTCH positive human leukemic RPMI8402 cells were treated with 1 μM of 6-(4-tert-butylphenoxy)pyridin-3-amine and 6-([1,1′-Biphenyl]-4-yloxy)-N-methylpyridin-3-amine for 24 hours. Following treatment, total protein lysates were extracted and protein expression analysed by western blot.\nNOTCH positive human leukemic RPMI8402 cells were treated with 1 μM of 6-(4-tert-butylphenoxy)pyridin-3-amine and 6-((4′-Fluoro-[1,1′-biphenyl]-4-yl)oxy)pyridin-3-amine, 6-([1,1′-Biphenyl]-4-yloxy)-4-methylpyridin-3-amine, 6-([1,1′-Biphenyl]-4-yloxy)-2-methylpyridin-3-amine and N-Methyl-6-((6-phenylpyridin-3-yl)oxy)pyridin-3-amine for 24 hours. Following treatment, total protein lysates were extracted and protein expression analysed by western blot.\nas §1, §2, §3, §4"}}, "data": [{"smiles": "Cc1cc(Oc2ccc(-c3ccccc3)cc2)ncc1N", "note": "[Example 9, 6-([1,1′-Biphenyl]-4-yloxy)-4-methylpyridin-3-amine]", "values": [{"measurement": "IC50", "setting": "[1]", "result": 110, "unit": "nM"}, {"measurement": "downregulation of cMYC compared to 6-(4-tert-butylphenoxy)pyridin-3-amine", "setting": "[2]", "result": "stronger downregulation"}, {"measurement": "downregulation of N1-ICD compared to 6-(4-tert-butylphenoxy)pyridin-3-amine", "setting": "[3]", "result": "stronger downregulation"}, {"measurement": "potency in downregulating NOTCH pathway compared with 6-(4-tert-butylphenoxy)pyridin-3-amine", "setting": "[4]", "result": "enhanced potency"}]}, {"smiles": "Nc1ccc(Oc2ccc(-c3ccc(F)cc3)cc2)nc1", "note": "[Example 10, 6-((4′-Fluoro-[1,1′-biphenyl]-4-yl)oxy)pyridin-3-amine]", "values": [{"measurement": "IC50", "setting": "[1]", "result": 83, "unit": "nM"}, {"measurement": "downregulation of cMYC compared to 6-(4-tert-butylphenoxy)pyridin-3-amine", "setting": "[2]", "result": "stronger downregulation"}, {"measurement": "downregulation of N1-ICD compared to 6-(4-tert-butylphenoxy)pyridin-3-amine", "setting": "[3]", "result": "stronger downregulation"}, {"measurement": "potency in downregulating NOTCH pathway compared with 6-(4-tert-butylphenoxy)pyridin-3-amine", "setting": "[4]", "result": "enhanced potency"}]}, {"smiles": "CNc1ccc(Oc2ccc(-c3ccccc3)nc2)nc1", "note": "[Example 23, N-Methyl-6-((6-phenylpyridin-3-yl)oxy)pyridin-3-amine]", "values": [{"measurement": "IC50", "setting": "[1]", "result": 500, "unit": "nM"}, {"measurement": "downregulation of cMYC compared to 6-(4-tert-butylphenoxy)pyridin-3-amine", "setting": "[2]", "result": "stronger downregulation"}, {"measurement": "downregulation of N1-ICD compared to 6-(4-tert-butylphenoxy)pyridin-3-amine", "setting": "[3]", "result": "stronger downregulation"}, {"measurement": "potency in downregulating NOTCH pathway compared with 6-(4-tert-butylphenoxy)pyridin-3-amine", "setting": "[4]", "result": "enhanced potency"}]}]}
